Results published in publication PMC9021288 (Nature Communications, 2022).
Values joined by “and” are separate entries in the source; they are usually repeats but may differ in a detail not shown here. Equal values may be shown once. “Also recorded” adds a separate entry of the source.

Columns and labels:
panel of human enzymes = experiment: Off-target enzyme and uptake assays (Eurofins CEREP); assay type: biochemical; conditions: for % Inhibition of Control Values: Rep1, Rep2, Mean
Renal excretion in dogs = assay type: in vivo, dog; conditions: for Concentration (ng/ml) in urine: dog urine, individual dogs 1-3
Method: A blood sample from the saphenous vein was collected into heparinized capillary tubes at multiple intervals between 0.25 and 24 h after dosing. Subsequently, samples were spun down at 1640 g for 5-10 min at 4 °C within 30 min after collection and plasma was collected. […] Urine was collected following an intravenous dose in both rat and dog, allowing renal clearance to be estimated. Human renal clearance was estimated from dog renal clearance as previously described[40] and other human PK parameters were predicted using allometric scaling and/or in vitro clearance data. PK parameters were calculated by naïve pooled approach using WinNonLin software (Phoenix, version 6.3).

AcAS (PF3D7_0627800) = experiment: Cellular thermal shift assay on parasite lysate; assay type: binding, Plasmodium falciparum; conditions: 1 µM; for AcAS band intensity normalized to DMSO at 37 °C: listed as iPanAm
Method: A cellular thermal shift assay (CETSA) was performed on infected RBCs or parasite lysates as described previously.
For a CETSA on parasite lysates, synchronized trophozoite cultures (ACS11-tagged parasites) were treated with 0.1% saponin to lyse the RBCs, and washed three times in PBS. Subsequently, parasite pellets were resuspended in 1× lysis buffer and subjected to three flash-freeze-thaw cycles using liquid nitrogen, followed by mechanical shearing using a syringe with a 25 G and a 30 G needle. Samples were spun down at 18,000 g for 20 min at 4 °C. The supernatant was diluted to 2.1 mg/ml protein concentration, and 100 µl was added to each PCR tube containing 1 µl of the compound at a 100× concentration (final concentration of 1 µM). Samples were incubated for 30 min at room temperature, subjected to a thermal gradient for 3 min on a pre-heated PCR machine, followed by 4 °C for 3 min. Samples were spun down at 18,000 g for 20 min at 4 °C and the soluble fraction was flash-frozen in liquid nitrogen and stored at −80 °C.
Samples were loaded on an 8% SDS-Page gel (Genscript) with 4×10^6 infected RBCs or 50 µg protein for the parasite lysate approach. Proteins were transferred to a nitrocellulose membrane that was blocked with 5% skim milk (Sigma) in PBS overnight and incubated with rabbit antiserum against AcAS (1:1000) for 1 h. Subsequently, membranes were washed three times with PBS-Tween for 5 min, followed by incubation with secondary horseradish peroxide (HRP)-conjugated goat anti-rabbit antibodies (Dako P0448, 1:1000) for 1 h. Blots were then washed three times with PBS-Tween for 5 min and twice with PBS. Following a 5-min incubation with Clarity Max Western ECL Substrate (BioRad), protein blots were imaged using the ImageQuant LAS4000 (GE Healthcare). The band intensity was quantified using Fiji software.

CYP1A2 = experiment: CYP induction (mRNA) in human hepatocytes; assay type: in vitro ADME; conditions: for CYP1A2 mean fold induction: per donor
Method: (§1) Positive control inducers (omeprazole for CYP1A2, phenobarbital for CYP2B6, and rifampicin for CYP3A4), were incubated alongside the test compound. For mRNA assessment, cells were lysed and resultant samples analyzed using an ABI 7900 HT real-time PCR system.

CYP2B6 = experiment: CYP induction (mRNA) in human hepatocytes; assay type: in vitro ADME; conditions: for CYP2B6 mean fold induction: per donor
Method: as §1

CYP3A4 = experiment: CYP induction (mRNA) in human hepatocytes; assay type: in vitro ADME; conditions: for CYP3A4 mean fold induction: per donor
Method: as §1

[1] = Stability under stress storage conditions (XRPD); assay type: physicochemical; conditions: 40 °C, 75% RH open and closed container or 60 °C, one month
[2] = test system: control-cKD P. falciparum; experiment: Drug sensitivity of control conditional knockdown parasites; assay type: cell-based, Plasmodium falciparum; conditions: 0 nM vs 500 nM aTc
Method: Replication assays were performed using a SYBR Green method as described previously. Briefly, asynchronous parasites were diluted to 0.83% parasitemia, 3% hematocrit in 30 µl medium, and added to 30 µl of diluted compounds in medium (0.1% DMSO final concentration) in black 384-wells plates. After a 72-h incubation, 30 µl of SYBR Green diluted in lysis buffer was added according to the manufacturer’s protocol (Life Technologies). Fluorescence intensity was measured on a BioTek Synergy 2 Plate Reader after 1-h incubation and was normalized to a DMSO control (100% growth) and DHA- or epoxomicin-treatment (no growth). […] Parasite survival was assessed by flow cytometry on an Accuri C6 (BD Biosciences) with BD C6 Plus software using SYBR Green and MitoTracker Deep Red FM (Life Technologies) as nuclear stain and vital dye, respectively, and data were analyzed using FlowJo (10.5.0). […] Luminescence was measured after 72 h using the Renilla-Glo(R) Luciferase Assay System (Promega E2750) and the GlomAX® Discover Multimode Microplate Reader (Promega). The luminescence values were normalized to DMSO vehicle (100% growth) and 200 nM chloroquine-treated (no growth) samples as controls.

## C[C@@H](CNC(=O)[C@H](O)C(C)(C)CO)NC(=O)c1cc(F)c(F)cc1F [MMV693183]
Panel of human enzymes; 10 µM
  induction, GABA transaminase: 30.7%
  inhibition, HDAC11: 36.9%
  inhibition/induction, all other enzyme and uptake assays: less than 25%
Panel of human enzymes; ATPase (Na+/K+)
  % Inhibition of Control Values: -2.75% and -1.9% and -3.6%
Panel of human enzymes; CENP-E (h)
  % Inhibition of Control Values: -0.4% and -0.6% and -0.2%
Panel of human enzymes; COX1(h)
  % Inhibition of Control Values: -4.65% and -5.4% and -3.9%
Panel of human enzymes; Eg5 (h)
  % Inhibition of Control Values: -5.55% and -2% and -9.1%
Panel of human enzymes; GABA transaminase
  % Inhibition of Control Values: -30.7% and -29.5% and -31.9%
Panel of human enzymes; HDAC6 (h)
  % Inhibition of Control Values: -14.7% and -18.7% and -10.7%
Panel of human enzymes; HDAC11 (h)
  % Inhibition of Control Values: 36.9% and 32.5% and 41.3%
Panel of human enzymes; MAO-A (h)
  % Inhibition of Control Values: 1.7% and -0.1% and 3.5%
Panel of human enzymes; MAO-B (h) recombinant enzyme
  % Inhibition of Control Values: -1.9%
Panel of human enzymes; PDE1B (h)
  % Inhibition of Control Values: 0.9% and -2.7% and 4.5%
Panel of human enzymes; PDE2A1 (h)
  % Inhibition of Control Values: -1% and -4.3% and 2.3%
Panel of human enzymes; PDE3A (h)
  % Inhibition of Control Values: 1.1% and -1.7% and 3.9%
Panel of human enzymes; PDE5 (h) (non-selective)
  % Inhibition of Control Values: -3.55% and -4.2% and -2.9%
Panel of human enzymes; acetylcholinesterase (h)
  % Inhibition of Control Values: 5.45% and 8.7% and 2.2%
Panel of human enzymes; phosphatase 1B (h) (PTP1B)
  % Inhibition of Control Values: 10.8% and 11.2% and 10.4%
Panel of human enzymes; phosphatase CDC25A (h)
  % Inhibition of Control Values: -0.35% and -5% and 4.3%
Panel of human enzymes; sirtuin 1 (h) (inhibitor effect)
  % Inhibition of Control Values: -1.45% and -1.9% and -1%
Panel of human enzymes; tyrosine hydroxylase
  % Inhibition of Control Values: -0.5% and 2.4% and -3.4%
Renal excretion in dogs; Dog
  Observed renal plasma clearance: 0.06 L/h/kg
Renal excretion in dogs; Mean
  Dose in urine: 0.0332
  Total in urine: 384 µg
Renal excretion in dogs; interval 0 to 4 h
  Concentration (ng/ml) in urine: 2790 ng/mL and 4550 ng/mL and 7660 ng/mL
Renal excretion in dogs; interval 8 to 24 h
  Concentration (ng/ml) in urine: 6890 ng/mL and 3700 ng/mL
Renal excretion in dogs; dogs, i.v. 1 mg/kg, dog with 170 ml urine
  drug eliminated in urine: 8.9%
Renal excretion in dogs; i.v. 1 mg/kg, total per animal 1-3, 1 mg/kg
  Dose in urine: 0.002 and 0.089 and 0.009
Renal excretion in dogs; total 0-24 h per animal 1-3
  Total in urine: 22.32 µg and 1030.9 µg and 98.8 µg
AcAS (PF3D7_0627800); 37 °C
  AcAS band intensity normalized to DMSO at 37 °C: 134.836
AcAS (PF3D7_0627800); 42 °C
  AcAS band intensity normalized to DMSO at 37 °C: 174.374
AcAS (PF3D7_0627800); 47 °C
  AcAS band intensity normalized to DMSO at 37 °C: 76.9786
AcAS (PF3D7_0627800); 52 °C
  AcAS band intensity normalized to DMSO at 37 °C: 24.7861
AcAS (PF3D7_0627800); 30 min, parasite lysate
  AcAS thermal stability: neither the parent compound MMV693183 nor its derivative 4’P-MMV693183 affected AcAS stability
CYP1A2; 5 µM
  CYP1A2 mean fold induction: 1.48 and 1.11 and 1.38
CYP1A2; 15 µM
  CYP1A2 mean fold induction: 1.04 and 1.07 and 0.844
CYP1A2; 50 µM
  CYP1A2 mean fold induction: 0.874 and 0.824 and 0.795
CYP1A2; 150 µM
  CYP1A2 mean fold induction: 0.704 and 0.613 and 0.609
CYP1A2; 250 µM
  CYP1A2 mean fold induction: 0.586 and 0.436
CYP1A2; 500 µM
  CYP1A2 mean fold induction: 0.357 and 0.496 and 0.293
CYP1A2; up to 500 µM
  CYP1A2 induction: did not induce CYP1A2 nor CYP2B6
CYP2B6; 5 µM
  CYP2B6 mean fold induction: 1.75 and 0.995 and 1.18
CYP2B6; 15 µM
  CYP2B6 mean fold induction: 1.38 and 0.951 and 1.660
CYP2B6; 50 µM
  CYP2B6 mean fold induction: 0.959 and 0.828 and 0.886
CYP2B6; 150 µM
  CYP2B6 mean fold induction: 0.663 and 0.721 and 0.727
CYP2B6; 250 µM
  CYP2B6 mean fold induction: 0.667 and 0.582
CYP2B6; 500 µM
  CYP2B6 mean fold induction: 0.495 and 0.699 and 0.325
CYP2B6; up to 500 µM
  CYP2B6 induction: did not induce CYP1A2 nor CYP2B6
CYP3A4; 5 µM
  CYP3A4 mean fold induction: 1.22 and 1.03 and 1.21
CYP3A4; 15 µM
  CYP3A4 mean fold induction: 0.824 and 0.905 and 0.816
CYP3A4; 50 µM
  CYP3A4 mean fold induction: 0.779 and 0.500 and 1.26
CYP3A4; 150 µM
  CYP3A4 mean fold induction: 1.19 and 0.477 and 1.98
CYP3A4; 250 µM
  CYP3A4 mean fold induction: 0.665 and 2.86
CYP3A4; 500 µM
  CYP3A4 mean fold induction: 3.6 and 3.63 and 1.49 and 3.16
CYP3A4; 72 h, three donors
  concentration at which CYP3A4 was induced: greater than 150 µM
[1]
  stability after storage under stress conditions: chemically stable; also recorded: no form-change
[2]
  IC50 change upon knockdown: no difference in sensitivity
